# In US9937178B2, “Methods of identifying and using MDM2 inhibitors” (DUKE UNIVERSITY, priority 2011, dated 2018):
# Assays:
# Mcl-1 = assay: 35[S]-Mcl-1 degradation in cell-free lysates; type: cell-based; conditions: resistant cell lysates, only from cells treated with lapatinib (rBT474)
# Description: FIG. 3 is a set of photographs showing that Mcl-1 is stabilized in lapatinib-resistant cells. […] FIG. 3B is a set of immunoblots showing the levels of HER2 and phospho-HER2 in untreated cells and cells treated with lapatinib. Cells were treated with or without lapatinib (1 μM) for 24 hours in the presence of the caspase inhibitor z-VAD (50 μM). The cells were harvested and cell lysates were immunoblotted using antibodies against phospho-HER2 (Y877) and total HER2. FIG. 3C is an immunoblot for phospho-AKT (T308) and total AKT. BT474 and rBT474 cells were treated with 1 μM lapatinib in the presence of 50 μM z-VAD. At the indicated time points, the cells were harvested and immunoblotted. FIG. 3D is an immunoblot for phospho-Erl1/2(T202/Y204) and total Erk1/2. BT474 and rBT474 cells were treated with 1 μM lapatinib in the presence of 50 μM z-VAD. At the indicated time points, the cells were harvested and immunoblotted. […] FIG. 3F is an autoradiograph showing the ^35[S] radioactivity in lysates containing ^35[S]-Mcl-1 at the indicated time points. ^35[S]-labeled Mcl-1 protein was incubated in cell-free lysates prepared from BT474 and rBT474 cells (top) or SKBR3 and rSKBR3 cells (bottom). […] FLAG-Mcl-1 was retrieved by immunoprecipitation using anti-flag agarose, and Mcl-1 ubiquitylation was analyzed by immunoblotting for HA (*non-specific band, **IgG heavy chain). […]
# MDM2 = assay: Immunoblot of MDM2 protein levels; type: cell-based; conditions: 1 μM lapatinib
# Description: Cells treated with 1 μM lapatinib were harvested at various time points and immunoblotted. […] BT474 and rBT474 cells were transiently transfected with HA-tagged Huwe1 and subsequently treated with 50 μg/ml cycloheximide (CHX) and 1 μM lapatinib. […] Immunoprecipitation was carried out using H1299 cell lysates and anti-Huwe1 antibody (or control IgG). […] BT474 cells were transfected with HA-tagged Huwe1 encoding the full-length protein, residues 1-2474, or residues 2473-4374. […] BT474 cells were transfected with increasing amounts of MDM2 and harvested after 48 hours. […] SUM190 cells were transfected with Scrambled or MDM2-specific siRNA (100 nM) and harvested after 72 hours. […] Ubiquitylation of Huwe1 was reconstituted in vitro by incubating recombinant Huwe1 protein (Huwe1^1-2474) with E1, UbcH5 (E2), ubiquitin (Ub), and recombinant MDM2 protein in reaction buffer at 37° C. for 3 hours. […] Twenty-four hours later, the cells were replated and further transfected with HA-tagged Huwe1 (wild type). Forty-eight hours after siRNA transfection, the cells were treated with 1 μM lapatinib. After 24 hours of lapatinib treatment, 50 μg/ml cycloheximide (CHX) was added to the culture medium and cells were harvested at various time points for immunoblotting.
# PP5 = assay: Immunoblot of PP5 protein levels; type: cell-based; conditions: 1 μM lapatinib
# Description: FIG. 7 is a set of photographs and graphs showing PP5 stability and post-cytochrome c protection in lapatinib-resistant cells. FIG. 7A is an immunoblot for caspase-9 (cleaved and non-cleaved) and cleaved caspase-3 (C9 and C3, respectively) showing rBT474 cells cultured in the absence or presence of 1 μM lapatinib for one week, as compared to BT474 cells which were maintained without lapatinib. Cytosolic lysates prepared from BT474 or rBT474 were incubated with 1 mM dATP and various amounts of cytochrome c (CC). FIG. 7B is a set of graphs showing Caspase 3 activity in the indicated cell lysates over time. Caspase-3 activity was assayed by measuring cleavage of DEVD-pNA following incubation of the cell lysates with 1 mM dATP and various concentrations of cytochrome c. FIG. 7C is an autoradiograph of ^32P and an immunoblot showing the percentage of the protein phosphorylated. In the presence of [γ-^32P]ATP, recombinant His-tagged HSP90β proteins (wild type and the indicated mutants) on nickel beads were incubated with the HSP90β-targeted kinase casein kinase 2. FIG. 7D is an autoradiograph and corresponding immunoblot showing BT474 or rBT474 cells after being cultured in the absence or presence of 1 μM lapatinib for 24 hours in the presence of z-VAD. Recombinant His-tagged HSP90β protein on nickel beads was incubated with the cell lysates in the presence of [γ-^32P]ATP. FIG. 7E is an immunoblot for phospho-Hsp90β (Ser226) and total HSP90β at various time points. […] FIG. 7F is a set of graphs showing FACS analysis for the phosphorylation status of Hsp90β (Ser255). BT474 or rBT474 cells cultured in the presence of 1 μM lapatinib for 24 hours were fixed with formaldehyde and incubated with phospho-Hsp90β (Ser255) antibody followed by an Alexa488-conjugated secondary antibody. FIG. 7G is an immunoblot for PP5 and actin at the indicated time points. BT474 and rBT474 (left) or AU565 and rAU565 cells (right) were treated with 1 μM lapatinib. FIG. 7H is an autoradiograph of immunoprecipitated FLAG-PP5 using an anti-FLAG agarose. […]
# Erk1/2 = assay: Immunoblot of phospho-Erk1/2 in lapatinib-treated cells; type: cell-based; conditions: sensitive and resistant cells, 1 μM lapatinib, 50 μM z-VAD
# CAS mRNA = assay: Quantitative real-time PCR of CAS mRNA; type: cell-based; conditions: sensitive or resistant cells
# HSP90β = HSP90β phosphorylation (Ser226, Ser255); type: cell-based
# Description: FIG. 7C is an autoradiograph of ^32P and an immunoblot showing the percentage of the protein phosphorylated. In the presence of [γ-^32P]ATP, recombinant His-tagged HSP90β proteins (wild type and the indicated mutants) on nickel beads were incubated with the HSP90β-targeted kinase casein kinase 2. FIG. 7D is an autoradiograph and corresponding immunoblot showing BT474 or rBT474 cells after being cultured in the absence or presence of 1 μM lapatinib for 24 hours in the presence of z-VAD. Recombinant His-tagged HSP90β protein on nickel beads was incubated with the cell lysates in the presence of [γ-^32P]ATP. FIG. 7E is an immunoblot for phospho-Hsp90β (Ser226) and total HSP90β at various time points. BT474 or rBT474 cells were treated with 1 μM lapatinib for the indicated amount of time. FIG. 7F is a set of graphs showing FACS analysis for the phosphorylation status of Hsp90β (Ser255). BT474 or rBT474 cells cultured in the presence of 1 μM lapatinib for 24 hours were fixed with formaldehyde and incubated with phospho-Hsp90β (Ser255) antibody followed by an Alexa488-conjugated secondary antibody.
# rBT474 xenografts = assay: rBT474 mammary fat pad xenograft; conditions: 100 mg/kg each drug, twice daily by oral gavage
# Description: Forty-eight hours after siRNA transfection, cells were treated with 1 μM lapatinib for 48 hours, and cells were harvested and subjected to Annexin V staining. The percentage of Annexin V-positive cells was analyzed by FACS. Results are expressed as a mean percentage±SEM and analyzed by t-test (*P<0.05). […] The oral administration of lapatinib (100 mg/kg, twice daily by oral gavage) began when the average tumor volume surpassed 300 mm^3. Results are expressed as a mean percentage±SEM. […] After 36 hours, cells were harvested and immunoblotted. […] BT474 and rBT474 cells were injected into the mammary fad pad of each mouse. When tumors developed to a size of 200 mm^3, the mice were randomly assigned to receive vehicle, lapatinib (100 mg/kg), Nutlin-3 (100 mg/kg), or Lapatinib+Nutlin-3 and treated twice daily by oral gavage. Results are expressed as a mean percentage±SEM. […] Percentage of apoptotic cell death was measured by FACS analysis using Annexin V. Results are expressed as a mean percentage±SEM of Annexin V-positive cells (*P<0.05 by t-test).
# Six week-old female nude mice were purchased from NCI Frederic. Xenograft tumors were produced by injection into the mammary fat pad with cells (10×10^6). Tumor volumes were calculated every 3-4 days based on caliper measurements of the short (a) and long (b) tumor diameters (volume=a2b/2). […]
# [1] = test system: BT474, SKBR3, AU565 and SUM190 cells; assay: Apoptotic cell death (Annexin V FACS) in parental lapatinib-sensitive lines; type: cell-based; conditions: all four parental sensitive cell lines
# Description: FIG. 2 is a set of graphs showing the percentage of cells undergoing apoptotic cell death for each of the four cell lines and their matched resistant cell line in the presence or absence of lapatinib and/or an MDM2 inhibitor, MI-219, as measured by FACS analysis for Annexin V. Results are expressed as mean +/− SEM of Annexin V positive cells.
# BT474, SKBR3, and AU565 cells were obtained from ATCC. SUM190 cells were obtained from Asterand, Inc. All cell lines were cultured in RPMI medium containing 10% fetal bovine serum (FBS). Lapatinib-resistant cells (rBT474, rSKBR3, rAU565, and rSUM190) were established as previously described^14. Cobleigh, et al. J. Clin. Oncol. 17, 2639-2648 (1999). Lapatinib-resistant cells were grown in the presence of 1 μM lapatinib unless otherwise stated.
structure (smiles),measurement,setting,value
CS(=O)(=O)CCNCc1ccc(-c2ccc3ncnc(Nc4ccc(OCc5cccc(F)c5)c(Cl)c4)c3c2)o1 [lapatinib],Mcl-1 protein half-life,Mcl-1,prolonged
same,MDM2 levels,MDM2; parental cells,rapidly decreased
same,MDM2 levels,MDM2; resistant cells,maintained
same,PP5 levels,PP5; resistant cells,unaltered
same,PP5 levels,PP5; sensitive cells,gradual decrease
same,phosphorylation of Erk1/2,Erk1/2,attenuated
same,CAS mRNA levels,CAS mRNA,did not cause a reduction
same,HSP90β phosphorylation at both Ser226 and Ser255,HSP90β; lapatinib-treated resistant cells compared to sensitive cells,markedly decreased
same,HSP90β phosphorylation,"HSP90β; normal BT474 cells, 1 μM lapatinib",did not prevent
same,rBT474-derived tumor growth,rBT474 xenografts,Neither lapatinib nor Nutlin-3 inhibited
same,apoptotic cell death in response to lapatinib,[1],died from apoptosis
